Data reported in patent US4489079A, “Pharmaceutical compositions having a peripheral antagonistic action with respect to opiates” (priority 1981, dated 1984).

What was measured:
[1] = system: analgesic effect of morphine; conditions: for ID50 a / ID50 c: ratio of analgesic-effect ID50 a to constipating-effect ID50 c; for ID50 a / ID50 c / Antagonism with respect to the analgesic effect ID50 a: (°) inactive up to the maximum injectable dose; for Antagonism with respect to the analgesic effect ID50 a: subcutaneous antagonist, 5 min before 12 mg/kg s.c. morphine, female mice, limits in parentheses, where given, on next line; for central effects / central activity (in words): conclusion from Table I
[2] = system: constipating effect of morphine; experiment: antagonism to the constipating effect of morphine (charcoal meal test, after A. F. Green, modified); conditions: for Antagonism with respect to the constipating effect ID50 c: subcutaneous antagonist, 5 min before 12 mg/kg s.c. morphine, female mice, extrapolated from least squares line log dose-response, limits in parentheses printed on next line; for ED50: Mus musculus, sc, read-out: Antagonism with respect to the constipating effect ID50 c
[3] = system: analgesic effect of morphine; experiment: animal or person; conditions: Mus musculus, sc, read-out: Antagonism with respect to the analgesic effect ID50 a
[4] = morphine control group, 12 mg/kg subcutaneous

C=CC[N+]1(CC=C)CC[C@]23CCCC[C@H]2[C@H]1Cc1ccc(O)cc13 [levallorphan bromoallylate, bromoallylate of levallorphan]
ID50 a / ID50 c [1]: > 5.11
Antagonism with respect to the analgesic effect ID50 a [1]: > 80 mg/kg

C=CC[N+]1(CC=C)CC[C@]23CCCC[C@H]2[C@H]1Cc1ccc(O)cc13 [levallorphan iodoallylate, iodoallylate of levallorphan]
Antagonism with respect to the constipating effect ID50 c [2]: 16.68 mg/kg
ID50 a / ID50 c [1]: > 3.61
Antagonism with respect to the analgesic effect ID50 a [1]: > 60 mg/kg

CN1CC[C@]23c4c5ccc(O)c4O[C@H]2[C@@H](O)C=C[C@H]3[C@H]1C5 [morphine]
animals showing the increase of the threshold of sensitivity [1, 4]: 100%
average increase of the threshold of sensitivity [1, 4]: 100%

C=CC[N+]1(C)CC[C@]23c4c5ccc(O)c4O[C@H]2C(=O)CC[C@@]3(O)[C@H]1C5 (some centres unmarked) [naloxone bromomethylate]
ED50 [3]: 5.12 mg/kg
ED50 [2]: 10.8 mg/kg
central effects / central activity (in words) [1]: have a certain central activity
ID50 a / ID50 c [1]: 0.47

C=CC[N+]1(C)CC[C@]23c4c5ccc(O)c4O[C@H]2C(=O)CC[C@@]3(O)[C@H]1C5.COS(=O)(=O)[O-] (some centres unmarked) [naloxone sulfomethylate]
Antagonism with respect to the constipating effect ID50 c [2]: 2.99 mg/kg
central effects / central activity (in words) [1]: have a certain central activity
ID50 a / ID50 c [1]: 1.68
Antagonism with respect to the analgesic effect ID50 a [1]: 5.039 mg/kg

C=CCN1CC[C@]23c4c5ccc(O)c4O[C@H]2C(=O)CC[C@@]3(O)[C@H]1C5 [naloxone, N-allylnoroxymorphone]
ED50 [3]: 0.083 mg/kg
ED50 [2]: 0.75 mg/kg
central effects / central activity (in words) [1]: very active
ID50 a relative to ID50 c (in words) ([1]; mouse, in vivo): much more active as antagonist of the analgesic effect than antagonist of the constipating effect
ID50 a / ID50 c [1]: 0.11
